{"source": "patent US20110091377A1", "about": "“BIOMARKERS FOR MELANOMA” (THE JOHNS HOPKINS UNIVERSITY, priority 2007, published 2011)", "format_in_all_cases": "cell-based, human", "key": {"MMP-1 [1]": {"system": "MMP-1", "assay": "Semi-quantitative duplex RT-PCR of MMP-1 after siRNA gene silencing", "conditions": "24 hours after transfection", "description": "(§1) The MMP-1 siRNA (5′-gagcaagatgtggacttag-3′) and scrambled siRNA (5′-gattcaggtgtagaacgag-3′) sequences were designed using Dharmacon siDESIGN Center. Transfection of the siRNAs was performed using 2 μL of DharmaFECT 1 transfection reagent (Dharmacon) and 100 nM of MMP-1 siRNA and scrambled siRNA for the WM852 cell line and 250 nM for the WM793 cell line. Cells were collected and pelleted 24 hours after transfection for RNA extraction using the RNeasy Mini Kit ([…]), cDNA production by using SUPERSCRIPT First-Strand Synthesis System for RT-PCR according to manufacturer's instructions (Invitrogen), and semi-quantitative duplex PCR to confirm MMP-1 knockdown.\nSemi-quantitative duplex RT-PCR was performed by a MJ Research Programmable Thermal Controller (PTC-100, Inc.) and the amplified products were separated on an agarose gel. The duplex PCR utilized 20 by oligonucleotides to amplify regions of ˜350 by from MMP-1. Optimization experiments were conducted to determine a favorable primer concentration for the GAPDH internal control. The following primer oligonucleotides were used: MMP-1 forward (5′-[…]-3′), MMP-1 reverse (5′-[…]-3′), GAPDH forward (5′-[…]-3′), and GAPDH reverse (5′-[…]-3′). The PCR was carried out in a total volume of 25 uL, containing 2.5 uL of 10×PCR Buffer (containing 15 mM MgC12), 0.2 mM dNTPs, and 0.3 ul AmpliTaq Gold DNA Polymerase (Applied Biosystems). […]"}, "MMP-1 [2]": {"system": "MMP-1", "assay": "MMP-1 ELISA of cell culture media after siRNA gene silencing", "description": "Cell culture media with no serum was added to the cell lines. After 72 hours, the media was collected and the protein concentration was determined using the Bio-Rad Protein Assay reagent (Bio-Rad Laboratories). The amount of human MMP-1 pro and active forms was determined using the RAYBIO Human MMP-1 ELISA kit (RayBiotech, Inc.) following the manufacturer's instructions. MMP-1 activity in the collected media was measured using the SensoLyte Plus™ 520 MMP-1 Assay Kit (AnaSpec) following the manufacturer's protocol including the step to add 4-aminophenylmecuric acetate (APMA) to the samples in order to activate all the pro-MMP-1."}, "[3]": {"system": "WM852 (wildtype BRAF melanoma)", "assay": "3H-thymidine cell proliferation assay, WM852", "conditions": "100 nM siRNA", "description": "as §1\n(§2) WM852 and WM793 cell lines were seeded at 15,000 cells per well into a 96-well tissue culture plate (Becton Dickinson) 24 hours after siRNA transfection. Twenty-two hours later, 10 μL of 0.1 μCi/μL ^3H-thymidine (Perkin Elmer) was added to each well. After 4 hours, the cells were washed with PBS and 50 μL of trypsin was added into each well for 10 minutes. The trypsinized cells were harvested to a filtermat using the Perkin Elmer FilterMate cell harvester (Perkin Elmer). The dried filtermat was sealed in a sample bag with 4 mL of scintillation fluid and then read on a Perkin Elmer 1450 Microbeta Liquid Scintillator (Perkin Elmer)."}, "[4]": {"system": "WM793 (BRAF V600E melanoma)", "assay": "3H-thymidine cell proliferation assay, WM793", "conditions": "BRAF mutant melanoma (WM793), 250 nM siRNA", "description": "as §1, §2"}}, "data": [{"substance": "5′-gagcaagatgtggacttag-3′ [MMP-1 siRNA]", "values": [{"measurement": "MMP-1 transcript levels", "setting": "MMP-1 [1]; WM793, BRAF V600E, 250 nM siRNA", "value": "efficiently downregulated"}, {"measurement": "MMP-1 transcript levels", "setting": "MMP-1 [1]; WM852, wildtype BRAF, 100 nM siRNA", "value": "efficiently downregulated"}, {"measurement": "secreted MMP-1 protein levels from conditioned media", "setting": "MMP-1 [2]; WM793, BRAF V600E", "value": "efficiently downregulated"}, {"measurement": "secreted MMP-1 protein levels from conditioned media", "setting": "MMP-1 [2]; WM852, wildtype BRAF", "value": "efficiently downregulated"}, {"measurement": "cell growth inhibition versus control siRNA", "setting": "[3]", "value": 17, "unit": "%"}, {"measurement": "cell growth inhibition versus control siRNA", "setting": "[4]", "value": 80, "unit": "%"}]}]}
